Experiments:
[1] = test system: HT29; assay: NCI 60-cell panel dose-response; type: cell-based; details: Homo sapiens, HT-29; HT29 (Colon cancer)
[2] = test system: HeLa cells; assay: DNA damage, immunoblot of γ-phosphorylation of histone H2A.X; type: cell-based, human; details: various doses, 12 hour
Procedure: The anthracyclin antibiotic agent doxorubicin (DXR) is an active cytotoxic reagent with a wide range of clinical indications, including treatment of solid tumors in the ovary, breast, and gastrointestinal systems, as well as treatment of liquid tumors such as leukemia. […] Specifically, HeLa cells were treated with NSC745885 at various doses for 12 hour. The phosphorylation of γ-H2A.X was subsequently detected by the immunoblot.
Cell lysates were prepared in lysis buffer (100 mM Tris-HCl pH 8.0, 150 mM NaCl, 0.1% SDS, and 1% Triton 100) at 4° C., separated by sodium dodecyl sulfate-polyacrylamide gel electrophoresis (SDS-PAGE), and then transferred onto a polyvinylidine difluoride membrane (Millipore, USA). Proteins were detected using antibodies against alpha actinin (ACTN), proliferating cell nuclear antigen (PCNA), p53, p21, cyclin B1, and cyclin D1 (Santa Cruz Biotechnology, USA), YH2A.X (EP854(2)Y, Epitomics, USA), cleaved caspase 3, cleaved poly(ADP-ribose) polymerase (PARP) and LC3B-II (Cell signaling, USA).

[3] = test system: IGROV1; assay: NCI 60-cell one dose screen; type: cell-based, human; details: IGROV1 (Ovarian cancer); 10^−5M
Procedure: (§1) NSC745885 was studied as a prototype for anti-proliferative activity against human cancer cell lines in NCI Drug Screen Program (Table 1, below). NSC745885 was evaluated in the full panel of human tumor cell lines derived from nine cancer cell types (leukemia, non-small cell lung cancer, colon cancer, CNS cancer, prostate cancer, melanoma, ovarian cancer, renal cancer and breast cancer). Each subpanel uses several cell lines and dose-response curves were drawn against the decadic logarithm (log 10) of the corresponding drug concentrations for each cell line by the subpanel group. They were also evaluated in the 60 cell line panel and anticancer assay was performed in accordance with the protocol of developmental therapeutics program (one dose mean graph). Results for each compound were reported as the proliferation percentage of the treated cells with that of the untreated control cells being 100. For each of these parameters the averaged values of mean graph midpoint (MG_MID) were calculated.

[4] = test system: HL-60(TB); assay: NCI 60-cell one dose screen; type: cell-based, human; details: HL-60(TB) (Leukemia); 10^−5M
Procedure: as §1

[5] = test system: KM12; assay: NCI 60-cell one dose screen; type: cell-based, human; details: KM12 (Colon cancer); 10^−5M
Procedure: as §1

[6] = test system: K-562; assay: NCI 60-cell one dose screen; type: cell-based, human; details: K-562 (Leukemia); 10^−5M
Procedure: as §1

[7] = test system: MDA-MB-231/ATCC; assay: NCI 60-cell one dose screen; type: cell-based, human; details: MDA-MB-231/ATCC (Breast cancer); 10^−5M
Procedure: as §1

[8] = test system: NCI-H226; assay: NCI 60-cell one dose screen; type: cell-based, human; details: NCI-H226 (Non-small cell lung cancer); 10^−5M
Procedure: as §1

[9] = test system: CAK1-1; assay: NCI 60-cell one dose screen; type: cell-based, human; details: CAK1-1 (Renal cancer); 10^−5M
Procedure: as §1

[10] = test system: HCT-15; assay: NCI 60-cell one dose screen; type: cell-based, human; details: HCT-15 (Colon cancer); 10^−5M
Procedure: as §1

[11] = test system: MALME-3M; assay: NCI 60-cell one dose screen; type: cell-based, human; details: MALME-3M (Melanoma); 10^−5M
Procedure: as §1

[12] = test system: 786-0; assay: NCI 60-cell one dose screen; type: cell-based, human; details: 786-0 (Renal cancer); 10^−5M
Procedure: as §1

[13] = test system: SR; assay: NCI 60-cell one dose screen; type: cell-based, human; details: SR (Leukemia); 10^−5M
Procedure: as §1

[14] = test system: MDA-MB-435; assay: NCI 60-cell one dose screen; type: cell-based, human; details: MDA-MB-435 (Breast cancer); 10^−5M
Procedure: as §1

[15] = test system: OVCAR-3; assay: NCI 60-cell one dose screen; type: cell-based, human; details: OVCAR-3 (Ovarian cancer); 10^−5M
Procedure: as §1

[16] = test system: SNB-19; assay: NCI 60-cell one dose screen; type: cell-based, human; details: SNB-19 (CNS cancer); 10^−5M
Procedure: as §1

[17] = test system: UO-31; assay: NCI 60-cell one dose screen; type: cell-based, human; details: UO-31 (Renal cancer); 10^−5M
Procedure: as §1

[18] = test system: A498; assay: NCI 60-cell one dose screen; type: cell-based, human; details: A498 (Renal cancer); 10^−5M
Procedure: as §1

[19] = test system: SK-MEL-5; assay: NCI 60-cell one dose screen; type: cell-based, human; details: SK-MEL-5 (Melanoma); 10^−5M
Procedure: as §1

[20] = test system: OVCAR-4; assay: NCI 60-cell one dose screen; type: cell-based, human; details: OVCAR-4 (Ovarian cancer); 10^−5M
Procedure: as §1

[21] = test system: UACC-257; assay: NCI 60-cell one dose screen; type: cell-based, human; details: UACC-257 (Melanoma); 10^−5M
Procedure: as §1

[22] = test system: UACC-62; assay: NCI 60-cell one dose screen; type: cell-based, human; details: UACC-62 (Melanoma); 10^−5M
Procedure: as §1

[23] = test system: LOX IMVI; assay: NCI 60-cell one dose screen; type: cell-based, human; details: LOX IMVI (Melanoma); 10^−5M
Procedure: as §1

[24] = test system: SN12C; assay: NCI 60-cell one dose screen; type: cell-based, human; details: SN12C (Renal cancer); 10^−5M
Procedure: as §1

[25] = test system: COLO 205; assay: NCI 60-cell one dose screen; type: cell-based, human; details: COLO 205 (Colon cancer); 10^−5M
Procedure: as §1

[26] = test system: NCI-H460; assay: NCI 60-cell one dose screen; type: cell-based, human; details: NCI-H460 (Non-small cell lung cancer); 10^−5M
Procedure: as §1

[27] = test system: OVCAR-5; assay: NCI 60-cell one dose screen; type: cell-based, human; details: OVCAR-5 (Ovarian cancer); 10^−5M
Procedure: as §1

[28] = test system: MDA-MB468; assay: NCI 60-cell one dose screen; type: cell-based, human; details: MDA-MB468 (Breast cancer); 10^−5M
Procedure: as §1

[29] = test system: T-47D; assay: NCI 60-cell one dose screen; type: cell-based, human; details: T-47D (Breast cancer); 10^−5M
Procedure: as §1

[30] = test system: ACHN; assay: NCI 60-cell one dose screen; type: cell-based, human; details: ACHN (Renal cancer); 10^−5M
Procedure: as §1

In the case of O=C1c2ccccc2C(=O)c2c1ccc1nsnc21 [NSC745885, anthra[2,1-c][1,2,5]thiadiazole-6,11-dione], the GI50 [1] is reported as 13.4 µM, the “DNA damage (phosphorylation of γ-H2A.X, immunoblot)” value [2] is reported as “strongly induced DNA damage” and the proliferation percentage [3] is reported as −88.34%. It also gave a proliferation percentage [4] of −21.77%, a proliferation percentage [5] of 98.60% and a proliferation percentage [6] of 49.61%. For the same compound, the proliferation percentage [7] was −17.33%, the proliferation percentage [8] was 97.80% and the proliferation percentage [9] was 1.97%. For the same compound, the proliferation percentage [10] was 1.48%, the proliferation percentage [11] was −71.54% and the proliferation percentage [12] was −25.98%. It also gave a proliferation percentage [13] of 4.96%, a proliferation percentage [14] of −87.88% and a proliferation percentage [15] of −15.47%. It also gave a proliferation percentage [16] of 78.98%, a proliferation percentage [17] of −79.30% and a proliferation percentage [18] of 130.09%. For the same compound, the proliferation percentage [19] was 8.52%, the proliferation percentage [20] was −94.43% and the proliferation percentage [21] was −83.07%. It also gave a proliferation percentage [22] of −82.32%, a proliferation percentage [23] of −50.63% and a proliferation percentage [24] of −73.27%. For the same compound, the proliferation percentage [25] was 111.54%, the proliferation percentage [26] was 77.41% and the proliferation percentage [27] was −20.07%. For the same compound, the proliferation percentage [28] was −73.17%, the proliferation percentage [29] was −45.52% and the proliferation percentage [30] was −94.31%.

Source: patent US8772321B2, “Heteroannelated anthraquinone derivatives for inhibiting cancers” (National Defense Medical Center, priority 2008, dated 2014)
